Experimental data: US20040138199A1, “Benzoxazines and derivatives thereof as therapeutic agents” (priority 2002, published 2004)
pIC50: −log10 of the molar value.

Target: T1, p101/p110γ protein (PI3Kγ) (Homo sapiens, UniProt P48736)
T1 construct: HA; made in house; host or cells: Spodoptera frugiperda (Sf9) cells, baculovirus coinfection
Test: PI3Kγ In Vitro Kinase Assay
Assay type: biochemical
Conditions: purified recombinant p101/p110γ with G protein β1/γ2 subunits; 20 μM ATP, 25 μM PIP2; 20 minutes at room temperature; radioactive PIP3 readout
Method: Spodtera frugiperda cells, grown in ESF921 media, were coinfected with baculovirus expressing a glu-tagged […] and baculovirus expressing an HA-tagged p110γ, at a 3:1 ratio of p110 baculovirus to p110γ baculovirus. Sf9 cells were grown to 1×10^7 total cells/mL in 10L bioreactors and harvested 48-72 hours post infection. Samples of infected cells were then tested for expression of p101/p110γ PI3 kinase by immunoprecipitation and Western Blot analysis methods (see below).
To purify PI3Kγ, 4 volumes of room temperature hypotonic lysis buffer (1 mM MgCl2, 1 mM DTT, 5 mM EGTA, 1 mM Pefabloc, 0.5 μM aprotinin, […], 2 μM pepstatin, 5 μM E64, pH 8) per gram of cell paste, was poured onto frozen cell pellets with stirring, then lysed in a nitrogen “bomb” at 400 psi (599HC T316, Parr Instrument Co, Moline, Ill.). NaCl was added to 150 mM, and sodium cholate was added to 1% and mixed for another 45 minutes. The lysates were clarified by centrifugation for 25 minutes at 14,000 rpm. The lysates were then loaded over anti-glu-linked Protein-G Sepaharose beads (Covance Research Products, Richmond, Calif.) using 20 mL resin/50 g cell paste. The column was washed with 15 volumes of wash buffer (1 mM DTT, 0.2 mM EGTA, 1 mM Pefabloc, 0.5 μM aprotinin, 5 μM leupeptin, 2 μM pepstatin, 5 μM E64, 150 mM NaCl, 1% sodium cholate, pH 8). PI3Kγ was eluted with 6 column volumes of wash buffer that contain 100 μg/mL of a peptide that competes for binding of the glu tag. The column fractions with the eluted protein (determined by taking OD280 readings) were collected and dialyzed in 0.2 mM EGTA, 1 mM DTT, 1 mM Pefabloc, 5 μM leupeptin, 0.5% sodium cholate, 150 mM NaCl, and 50% glycerol, pH 8. The fractions were stored at −80° C. until further use.
Spodtera frugiperda cells were coinfected with baculovirus expressing a glu-tagged G protein β1 and baculovirus expressing a […] at a 1:1 ratio of glu-tagged G protein β1 baculovirus to G protein β2 baculovirus. Sf9 cells are grown in 10 L bioreactors and harvested 48-72 hours post infection. Samples of infected cells were tested for G protein β1/β2 expression by Western Blot analysis, as described below. Cell lysates were homogenized and loaded onto a column of glu-tagged beads as in Biological Example 1 and competed off the column with a glu peptide as described in Biological Example 1.
The inhibitory properties of the compounds in Table 1 were assayed in an in vitro PI3K assay. In a 96-well polypropylene plate, each well was spotted with 2 μL of 50 times the desired final concentration of compound in DMSO. Purified recombinant p101/p110γ protein (0.03 μg; ˜2.7 nM) and G protein β1/γ2 subunits (0.09 μg; −57.7 nM) for each reaction was combined in the assay buffer (30 mM HEPES, 100 mM NaCl, 1 mM EGTA, and 1 mM DTT). ATP and [γ-^32P-ATP] (0.09 μCi) were added to this mixture so that the final ATP concentration in the reaction was 20 μM. Lipid micelles were formed by sonicating phosphatidylinositol-4,5-diphosphate (PIP2), phosphatidylethanolamine (PE), and Na-cholate in the assay buffer for 10 minutes, adding MgCL2 and incubating on ice for 20 minutes, for final concentrations of 25 μM PIP2, 300 μM PE, 0.02% Na-cholate, and 10 mM MgCl2 in the reaction. The reactions were started by adding equal volumes lipid and enzyme mixture in a total volume of 50 μL, allowed to run for 20 minutes at room temperature, and stopped with 100 μL 75 mM H3PO4. The lipid product was transferred to a glass fiber filter plate and washed with 75 mM H3PO4 several times. The presence of radioactive lipid product (PIP3) was measured by adding Wallac Optiphase mix to each well and counting in a Wallac 1450 Trilux plate reader (PerkinElmer Life Sciences Inc., Boston, Mass. 02118). The IC50 for each compound tested is reported in μM in Table 1: […]

T1 sequence (P48736 whole entry, species assumed): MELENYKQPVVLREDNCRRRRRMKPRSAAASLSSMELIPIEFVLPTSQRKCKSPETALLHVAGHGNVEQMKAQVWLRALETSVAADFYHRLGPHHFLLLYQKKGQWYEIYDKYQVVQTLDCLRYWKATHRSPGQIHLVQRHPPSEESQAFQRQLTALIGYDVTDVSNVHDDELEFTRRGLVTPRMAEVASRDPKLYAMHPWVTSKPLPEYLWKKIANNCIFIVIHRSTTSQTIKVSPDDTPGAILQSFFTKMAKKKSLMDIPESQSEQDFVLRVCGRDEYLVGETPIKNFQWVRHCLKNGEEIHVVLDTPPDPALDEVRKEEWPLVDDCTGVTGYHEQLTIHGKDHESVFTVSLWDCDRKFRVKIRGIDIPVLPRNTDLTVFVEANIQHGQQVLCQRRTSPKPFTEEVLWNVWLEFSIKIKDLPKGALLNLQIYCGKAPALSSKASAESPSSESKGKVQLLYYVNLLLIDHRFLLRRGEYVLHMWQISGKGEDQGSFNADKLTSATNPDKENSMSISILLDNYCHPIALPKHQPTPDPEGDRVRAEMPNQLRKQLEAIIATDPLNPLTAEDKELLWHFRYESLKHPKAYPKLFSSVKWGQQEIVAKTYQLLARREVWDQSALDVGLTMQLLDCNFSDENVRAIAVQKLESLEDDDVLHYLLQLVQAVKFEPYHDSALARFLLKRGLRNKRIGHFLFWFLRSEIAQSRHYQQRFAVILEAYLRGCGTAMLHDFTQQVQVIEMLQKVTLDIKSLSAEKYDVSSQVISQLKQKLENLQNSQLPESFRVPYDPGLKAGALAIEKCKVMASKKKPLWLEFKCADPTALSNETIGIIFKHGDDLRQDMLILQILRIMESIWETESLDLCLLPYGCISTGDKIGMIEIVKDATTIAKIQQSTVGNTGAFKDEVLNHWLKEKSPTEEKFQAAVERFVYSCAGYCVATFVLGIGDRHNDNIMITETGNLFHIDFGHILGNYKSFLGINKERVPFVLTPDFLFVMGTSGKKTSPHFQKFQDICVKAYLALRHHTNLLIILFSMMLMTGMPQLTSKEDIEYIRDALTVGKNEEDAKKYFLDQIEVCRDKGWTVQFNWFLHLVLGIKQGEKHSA
T1 sequence (Q8WYR1 whole entry partner, species assumed): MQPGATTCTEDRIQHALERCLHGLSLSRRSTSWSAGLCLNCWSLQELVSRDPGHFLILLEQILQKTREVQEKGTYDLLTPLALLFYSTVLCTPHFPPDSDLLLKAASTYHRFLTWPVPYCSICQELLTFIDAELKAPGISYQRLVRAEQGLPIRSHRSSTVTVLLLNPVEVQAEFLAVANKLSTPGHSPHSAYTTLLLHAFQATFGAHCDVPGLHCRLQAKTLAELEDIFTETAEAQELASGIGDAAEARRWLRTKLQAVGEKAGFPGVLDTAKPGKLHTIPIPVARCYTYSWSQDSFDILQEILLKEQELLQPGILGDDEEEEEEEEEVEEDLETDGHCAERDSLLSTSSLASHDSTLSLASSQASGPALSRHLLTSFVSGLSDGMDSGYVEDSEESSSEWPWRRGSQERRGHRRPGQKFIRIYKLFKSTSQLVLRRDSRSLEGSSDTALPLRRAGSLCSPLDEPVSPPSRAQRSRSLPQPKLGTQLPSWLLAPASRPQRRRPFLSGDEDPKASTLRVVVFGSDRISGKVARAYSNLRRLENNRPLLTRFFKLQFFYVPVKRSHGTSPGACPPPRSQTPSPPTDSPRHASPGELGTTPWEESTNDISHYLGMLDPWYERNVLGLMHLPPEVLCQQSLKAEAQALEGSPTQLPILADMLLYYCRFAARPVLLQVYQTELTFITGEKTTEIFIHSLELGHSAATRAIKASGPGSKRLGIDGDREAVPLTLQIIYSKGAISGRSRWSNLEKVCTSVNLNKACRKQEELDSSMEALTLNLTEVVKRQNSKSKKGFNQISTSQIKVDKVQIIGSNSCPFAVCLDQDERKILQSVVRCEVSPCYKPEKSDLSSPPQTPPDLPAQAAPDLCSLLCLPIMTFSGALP

Row | pIC50 | Molecule
1 | 6.65 | O=C1NC(=S)SC1=Cc1ccc2c(c1)N(C(=O)Nc1ccccc1OC(F)(F)F)CCO2 [Example 56, 6-(4-Oxo-2-thioxo-thiazolidin-5-ylidenemethyl)-2,3-dihydro-1,4-benzoxazine-4-carboxylic acid (2-trifluoromethoxy-phenyl)-amide]
2 | 6.37 | 2-(4-Oxo-2-thioxo-thiazolidin-5-ylidenemethyl)-7,8-dihydro-6H-5-oxa-9-aza-benzocycloheptene-9-carboxylic acid phenyl ester [Example 105]
3 | 8.30 | O=C1NC(=S)SC1=Cc1ccc2c(c1)N(C(=O)Nc1cccc(C(F)(F)F)c1)CCO2 [Example 55, 6-(4-Oxo-2-thioxo-thiazolidin-5-ylidenemethyl)-2,3-dihydro-1,4-benzoxazine-4-carboxylic acid (3-trifluoromethyl-phenyl)-amide]
4 | 6.35 | O=C1NC(=S)SC1=Cc1ccc2c(c1)N(C(=O)c1ccccn1)CCO2 [Example 54, 5-[4-(Pyridine-2-carbonyl)-3,4-dihydro-2H-1,4-benzoxazin-6-ylmethylene]-2-thioxo-thiazolidin-4-one]
5 | 6.03 | O=C1NC(=S)SC1=Cc1ccc2c(c1)N(C(=O)c1ccc3c(c1)OCO3)CCO2 [Example 71, 5-[4-(1,3-Benzodioxole-5-carbonyl)-3,4-dihydro-2H-1,4-benzoxazin-6-ylmethylene]-2-thioxo-thiazolidin-4-one]
6 | 5.72 | O=C1NC(=S)SC1=Cc1ccc2c(c1)N(C(=O)c1cccnc1)CCCO2 [Example 117, 5-[9-(Pyridine-3-carbonyl)-6,7,8,9-tetrahydro-5-oxa-9-aza-benzocyclohepten-2-ylmethylene]-2-thioxo-thiazolidin-4-one]
7 | 7.57 | O=C1NC(=S)SC1=Cc1ccc2c(c1)N(C(=O)C1CCCCCC1)CCO2 [Example 83, 5-[4-Cycloheptanecarbonyl-3,4-dihydro-2H-benzo[1,4]oxazin-6-ethylene]-2-thioxo-thiazolidin-4-one]
8 | 9.00 | O=C1NC(=S)SC1=Cc1ccc2c(c1)N(C(=O)CCCc1ccccc1)CCO2 [Example 82, 5-[4-(4-Phenyl-butryl)-3,4-dihydro-2H-benzo[1,4]oxazin-6-ethylene]-2-thioxo-thiazolidin-4-one]
9 | 5.41 | O=C1NC(=S)SC1=Cc1ccc2c(c1)N(C(=O)c1ccco1)CCCO2 [Example 123, 5-[9-(Furan-2-carbonyl)-6,7,8,9-tetrahydro-5-oxa-9-aza-benzocyclohepten-2-ylmethylene]-2-thioxo-thiazolidin-4-one]

Further lines, the molecule ahead of its results:

Row | Molecule | pIC50
10 | COc1cccc(C(=O)N2CCOc3ccc(C=C4SC(=S)NC4=O)cc32)c1 [Example 21, 5-[4-(3-Methoxy-benzoyl)-3,4-dihydro-2H-1,4-benzoxazin-6-ylmethylene]-2-thioxo-thiazolidin-4-one] | 7.00
11 | COC(=O)CCCCCCC(=O)N1CCOc2ccc(C=C3SC(=S)NC3=O)cc21 [Example 44, 8-Oxo-8-[6-(4-oxo-2-thioxo-thiazolidin-5-ylidenemethyl)-2,3-dihydro-1,4-benzoxazin-4-yl]-octanoic acid methyl ester] | 7.74
12 | O=C1NC(=S)SC1=Cc1ccc2c(c1)N(C(=O)CCC1CCCC1)CCO2 [Example 36, 5-[4-(3-Cyclopentyl-propionyl)-3,4-dihydro-2H-1,4-benzoxazin-6-ylmethylene]-2-thioxo-thiazolidin-4-one] | 8.30
13 | O=C1NC(=S)SC1=Cc1ccc2c(c1)N(C(=O)c1ccc3c(c1)OC(F)(F)O3)CCO2 [Example 48, 5-[4-(2,2-Difluoro-1,3-benzodioxole-5-carbonyl)-3,4-dihydro-2H-1,4-benzoxazin-6-ylmethylene]-2-thioxo-thiazolidin-4-one] | 6.15
14 | 5-[4-(Furan-2-carbonyl)-3,4-dihydro-2H-1,4-benzoxazin-6-ylmethylene]-2-thioxo-thiazolidin-4-one [Example 41] | 7.19
15 | 5-[9-(3-Phenyl-acryloyl)-6,7,8,9-tetrahydro-5-oxa-9-aza-benzocyclohepten-2-ylmethylene]-2-thioxo-thiazolidin-4-one [Example 115] | 5.82
16 | N#Cc1ccc(C(=O)N2CCOc3ccc(C=C4SC(=S)NC4=O)cc32)cc1 [Example 28, 4-[6-(4-Oxo-2-thioxo-thiazolidin-5-ylidenemethyl)-2,3-dihydro-1,4-benzoxazine-4-carbonyl]-benzonitrile] | 6.41
17 | O=C1NC(=S)SC1=Cc1ccc2c(c1)N(C(=O)COCc1ccccc1)CCO2 [Example 39, 5-[4-(2-Benzyloxy-acetyl)-3,4-dihydro-2H-1,4-benzoxazin-6-ylmethylene]-2-thioxo-thiazolidin-4-one] | 7.85
18 | COc1cc(C(=O)N2CCOc3ccc(C=C4SC(=S)NC4=O)cc32)cc(OC)c1OC [Example 22, 2-Thioxo-5-[4-(3,4,5-trimethoxy-benzoyl)-3,4-dihydro-2H-1,4-benzoxazin-6-ylmethylene]-thiazolidin-4-one] | 5.40
19 | CC1COc2ccc(C=C3SC(=S)NC3=O)cc2N1C(=O)c1ccccc1 (stereo not drawn) [Example 8, 5-[3-Methyl-4-(-phenyl-methanoyl)-3,4-dihydro-2H-benzo[1,4]oxazine-6-ylmethylene]-2-thioxo-thiazolidin-4-one] | 5.66
20 | COc1cc(CN2CCCOc3ccc(C=C4SC(=S)NC4=O)cc32)cc(OC)c1 [Example 6, 5-[9-(3,5-Dimethoxy-benzyl)-6,7,8,9-tetrahydro-5-oxa-9-aza-benzocyclohepten-2-ylmethylene]-2-thioxo-thiazolidin-4-one] | 6.82
21 | O=C1NC(=S)SC1=Cc1ccc2c(c1)N(C(=O)c1cc(Cl)sc1Cl)CCO2 [Example 51, 5-[4-(2,5-Dichloro-thiophene-3-carbonyl)-3,4-dihydro-2H-1,4-benzoxazin-6-ylmethylene]-2-thioxo-thiazolidin-4-one] | 6.07
22 | 5-[9-(4-Hexyl-benzoyl)-6,7,8,9-tetrahydro-5-oxa-9-aza-benzocyclohepten-2-ylmethylene]-2-thioxo-thiazolidin-4-one [Example 126] | 5.38
23 | COc1ccc(CC(=O)N2CCOc3ccc(C=C4SC(=S)NC4=O)cc32)cc1OC [Example 20, 5-{4-[2-(3,4-Dimethoxy-phenyl)-acetyl]-3,4-dihydro-2H-1,4-benzoxazin-6-ylmethylene}-2-thioxo-thiazolidin-4-one] | 7.14
24 | 5-[9-(2-Benzyloxy-acetyl)-6,7,8,9-tetrahydro-5-oxa-9-aza-benzocyclohepten-2-ylmethylene]-2-thioxo-thiazolidin-4-one [Example 119] | 5.78
25 | O=C1NC(=S)SC1=Cc1ccc2c(c1)N(C(=O)Cc1ccccc1)CCO2 [Example 19, 5-(4-Phenylacetyl-3,4-dihydro-2H-1,4-benzoxazin-6-ylmethylene)-2-thioxo-thiazolidin-4-one] | 7.26
26 | CC(C)(C)c1ccc(C(=O)N2CCOc3ccc(C=C4SC(=S)NC4=O)cc32)cc1 [Example 25, 5-[4-(4-tert-Butyl-benzoyl)-3,4-dihydro-2H-1,4-benzoxazin-6-ylmethylene]-2-thioxo-thiazolidin-4-one] | 6.61
27 | 4-(3,5-dimethyl-benzyl)-3,4-dihydro-2H-benzo[1,4]oxazine-6-ylmethylene]-2-thioxo-thiazolidin-4-one [Example 4] | 6.19
